pIC50: −log10 of the molar value.
How the values were obtained:
human Cathepsin S = human Cathepsin S (Homo sapiens (Human), UniProt P25774); assay: Cathepsin enzyme inhibition assay (fluorogenic peptide substrate), human Cat S; assay type: biochemical; settings: human Cat S 1 nM, substrate Z-Val-Val-Arg-AMC 20 μM, pH 6.5
Method: (§1) Cathepsin Enzyme Inhibition Assay
(§2) Enzyme activity is measured by observing the increase in fluorescence intensity caused by cleavage of a peptide substrate containing a fluorophore whose emission is quenched in the intact peptide.
(§3) Assay buffer: 100 mM potassium phosphate pH 6.5, EDTA-Na 5 mM, Triton X-100 0.001%, DTT 5 mM.
(§4) Enzymes (all at 1 nM): human and mouse Cathepsin S, Cat K, Cat B, Cat L.
(§5) Substrate (20 μM): Z-Val-Val-Arg-AMC, except for Cat K which uses Z-Leu-Arg-AMC (both from Bachem).
(§6) AMC=7-Amino-4-Methyl-Coumarin.
(§7) Excitation 360 nm, Emission 465 nm.
(§8) Enzyme is added to the substance dilutions in 96-well microtitre plates and the reaction is started with substrate. […] IC50 are calculated by standard methods.
(§9) Inhibition of human Cat S, mouse Cat S, human Cat K, human Cat B, human Cat L and mouse Cat L have been measured separately.

human Cat L = human Cat L (Homo sapiens (Human), UniProt P07711); assay: Cathepsin enzyme inhibition assay (fluorogenic peptide substrate), human Cat L; assay type: biochemical; settings: human Cat L 1 nM, substrate Z-Val-Val-Arg-AMC 20 μM, pH 6.5
Sequence of human Cat L (P07711 114-333): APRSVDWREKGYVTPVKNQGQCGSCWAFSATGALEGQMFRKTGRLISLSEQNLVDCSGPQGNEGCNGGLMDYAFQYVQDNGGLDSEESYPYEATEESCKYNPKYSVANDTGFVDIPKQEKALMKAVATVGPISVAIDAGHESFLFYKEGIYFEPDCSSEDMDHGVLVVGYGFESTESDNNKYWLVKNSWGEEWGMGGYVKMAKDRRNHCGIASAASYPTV
Method: as §1, §2, §3, §4, §5, §6, §7, §8, §9

Sequence of human Cathepsin S (P25774 115-331): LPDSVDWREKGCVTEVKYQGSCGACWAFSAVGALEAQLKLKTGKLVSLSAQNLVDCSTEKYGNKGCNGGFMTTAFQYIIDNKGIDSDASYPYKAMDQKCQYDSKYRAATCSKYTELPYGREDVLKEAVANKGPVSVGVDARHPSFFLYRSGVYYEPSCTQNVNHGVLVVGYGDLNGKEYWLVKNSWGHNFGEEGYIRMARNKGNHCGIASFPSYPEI

SMILES	pIC50 (human Cathepsin S)	pIC50 (human Cat L)
N#CC1(NC(=O)[C@@H]2C[C@@H](S(=O)(=O)c3ccc(OCC(F)(F)F)cc3Cl)CN2C(=O)C2(c3ncc(Cl)cc3F)CC2)CC1 [Example 6, (2S,4R)-1-[1-(5-Chloro-3-fluoro-pyridin-2-yl)-cyclopropanecarbonyl]-4-[2-chloro-4-(2,2,2-trifluoro-ethoxy)-benzenesulfonyl]-pyrrolidine-2-carboxylic acid (1-cyano-cyclopropyl)-amide]	9.17	7.35
Cc1cccc(S(=O)(=O)[C@@H]2C[C@@H](C(=O)NC3(C#N)CC3)N(C(=O)C3(c4ncc(Cl)cc4F)CC3)C2)n1 [Example 23, (2S,4R)-1-[1-(5-Chloro-3-fluoro-pyridin-2-yl)-cyclopropanecarbonyl]-4-(6-methylpyridine-2-sulfonyl)-pyrrolidine-2-carboxylic acid (1-cyano-cyclopropyl)-amide]	8.55	5.25
Cc1ncccc1-c1ccc(S(=O)(=O)[C@@H]2C[C@@H](C(=O)NC3(C#N)CC3)N(C(=O)C3(c4ncc(Cl)cc4Cl)CC3)C2)c(Cl)c1 [Example 37, (2S,4R)-4-[2-Chloro-4-(2-methyl-pyridin-3-yl)-benzenesulfonyl]-1-[1-(3,5-dichloro-pyridin-2-yl)-cyclopropanecarbonyl]-pyrrolidine-2-carboxylic acid (1-cyano-cyclopropyl)-amide]	9.11	7.14
COc1ccc(S(=O)(=O)[C@@H]2C[C@@H](C(=O)NC3(C#N)CC3)N(C(=O)C3(c4ncc(Br)cc4F)CC3)C2)c(Cl)c1 [Example 7, (2S,4R)-1-[1-(5-Bromo-3-fluoro-pyridin-2-yl)-cyclopropanecarbonyl]-4-(2-chloro-4-methoxy-benzenesulfonyl)-pyrrolidine-2-carboxylic acid (1-cyano-cyclopropyl)-amide]	9.13	7.59
N#CC1(NC(=O)[C@@H]2C[C@@H](S(=O)(=O)c3ccccc3-n3cncn3)CN2C(=O)C2(c3ncc(Cl)cc3F)CC2)CC1 [Example 48, (2S,4R)-1-[1-(5-Chloro-3-fluoro-pyridin-2-yl)-cyclopropanecarbonyl]-4-(2-[1,2,4]triazol-1-yl-benzenesulfonyl)-pyrrolidine-2-carboxylic acid (1-cyano-cyclopropyl)-amide]	7.23	4.68
N#CC1(NC(=O)[C@@H]2C[C@@H](S(=O)(=O)c3ccccc3-n3ccnn3)CN2C(=O)C2(c3ncc(I)cc3F)CC2)CC1 [Example 44, (2S,4R)-1-[1-(3-Fluoro-5-iodo-pyridin-2-yl)-cyclopropanecarbonyl]-4-(2-[1,2,3]triazol-1-yl-benzenesulfonyl)-pyrrolidine-2-carboxylic acid (1-cyano-cyclopropyl)-amide]	8.62	5.81
N#CC1(NC(=O)[C@@H]2C[C@@H](S(=O)(=O)c3ccccc3-n3cncn3)CN2C(=O)C2(c3ncc(I)cc3F)CC2)CC1 [Example 45, (2S,4R)-1-[1-(3-Fluoro-5-iodo-pyridin-2-yl)-cyclopropanecarbonyl]-4-(2-[1,2,4]triazol-1-yl-benzenesulfonyl)-pyrrolidine-2-carboxylic acid (1-cyano-cyclopropyl)-amide]	6.49	4.55
Cc1ncccc1-c1ccc(S(=O)(=O)[C@@H]2C[C@@H](C(=O)NC3(C#N)CC3)N(C(=O)C3(c4ncc(C(F)(F)F)cc4F)CC3)C2)c(Cl)c1 [Example 35, (2S,4R)-4-[2-Chloro-4-(2-methyl-pyridin-3-yl)-benzenesulfonyl]-1-[1-(3-fluoro-5-trifluoromethyl-pyridin-2-yl)-cyclopropanecarbonyl]-pyrrolidine-2-carboxylic acid (1-cyano-cyclopropyl)-amide]	9.11	7.23
C[C@H](Oc1ccc(S(=O)(=O)[C@@H]2C[C@@H](C(=O)NC3(C#N)CC3)N(C(=O)C3(c4ncc(Cl)cc4F)CC3)C2)c(Cl)c1)C(F)(F)F [Example 27, (2S,4R)-1-(1-(5-chloro-3-fluoropyridin-2-yl)cyclopropanecarbonyl)-4-(2-chloro-4-((S)-1,1,1-trifluoropropan-2-yloxy)phenylsulfonyl)-N-(1-cyanocyclopropyl)pyrrolidine-2-carboxamide]	8.80	7.05

Now those with a higher pIC50 (human Cathepsin S), led by results:

pIC50 (human Cathepsin S)	pIC50 (human Cat L)	SMILES
9.21	6.44	N#CC1(NC(=O)[C@@H]2C[C@@H](S(=O)(=O)c3cc(C(F)(F)F)ccc3Cl)CN2C(=O)C2(c3ccc(Cl)cn3)CC2)CC1 [Example 29, (2S,4R)-1-[1-(5-Chloro-pyridin-2-yl)-cyclopropanecarbonyl]-4-(2-chloro-5-trifluoromethyl-benzenesulfonyl)-pyrrolidine-2-carboxylic acid (1-cyano-cyclopropyl)-amide]
9.22	6.39	COc1ccc(S(=O)(=O)[C@@H]2C[C@@H](C(=O)NC3(C#N)CC3)N(C(=O)C3(c4ccc(Cl)cn4)CC3)C2)c(Cl)c1 [Example 1, (2S,4R)-4-(2-Chloro-4-methoxy-benzenesulfonyl)-1-[1-(5-chloro-pyridin-2-yl)-cyclopropanecarbonyl]-pyrrolidine-2-carboxylic acid (1-cyano-cyclopropyl)-amide]
9.22	7.05	N#CC1(NC(=O)[C@@H]2C[C@@H](S(=O)(=O)c3ccc(F)cc3Cl)CN2C(=O)C2(c3ncc(Cl)cc3F)CC2)CC1 [Example 11, (2S,4R)-1-(1-(5-chloro-3-fluoropyridin-2-yl)cyclopropanecarbonyl)-4-(2-chloro-4-fluorophenylsulfonyl)-N-(1-cyanocyclopropyl)pyrrolidine-2-carboxamide]
9.22	8.52	N#CC1(NC(=O)[C@@H]2C[C@@H](S(=O)(=O)c3ccccc3F)CN2C(=O)C2(c3ncc(I)cc3F)CC2)CC1 [Example 41, (2S,4R)-4-(2-Fluoro-benzenesulfonyl)-1-[1-(3-fluoro-5-iodo-pyridin-2-yl)-cyclopropanecarbonyl]-pyrrolidine-2-carboxylic acid (1-cyano-cyclopropyl)-amide]
9.30	7.21	Cc1cc(-c2ccc(S(=O)(=O)[C@@H]3C[C@@H](C(=O)NC4(C#N)CC4)N(C(=O)C4(c5ncc(Cl)cc5F)CC4)C3)c(Cl)c2)ccn1 [Example 31, (2S,4R)-1-(1-(5-chloro-3-fluoropyridin-2-yl)cyclopropanecarbonyl)-4-(2-chloro-4-(2-methylpyridin-4-yl)phenylsulfonyl)-N-(1-cyanocyclopropyl)pyrrolidine-2-carboxamide]
9.40	7.89	N#CC1(NC(=O)[C@@H]2C[C@@H](S(=O)(=O)c3ccccc3Cl)CN2C(=O)C2(c3ncc(Cl)cc3F)CC2)CC1 [Example 5, (2S,4R)-4-(2-Chloro-benzenesulfonyl)-1-[1-(5-chloro-3-fluoro-pyridin-2-yl)-cyclopropanecarbonyl]-pyrrolidine-2-carboxylic acid (1-cyano-cyclopropyl)-amide]
9.42	8.01	Cc1ncccc1-c1ccc(S(=O)(=O)[C@@H]2C[C@@H](C(=O)NC3(C#N)CC3)N(C(=O)C3(c4ncc(I)cc4F)CC3)C2)c(Cl)c1 [Example 36, (2S,4R)-4-[2-Chloro-4-(2-methyl-pyridin-3-yl)-benzenesulfonyl]-1-[1-(3-fluoro-5-iodo-pyridin-2-yl)-cyclopropanecarbonyl]-pyrrolidine-2-carboxylic acid (1-cyano-cyclopropyl)-amide]
